We go through four molecules from ChEMBL document CHEMBL1159278, “An antimitotic and cytotoxic chalcone from Fissistigma lanuginosum” (J Nat Prod, 1995).

Structures are written as SMILES. Values after ≈ are worked out from the molar mass of the structure shown.

One test deals with KB. Kind of test: Cytotoxicity against human KB cells. Format: functional, cell-based.
The nature of test [1]: Inhibition of tubulin assembly into microtubules.

`COc1c(O)c(OC)c(C(=O)[C@@H]2CC=C(CCC=C(C)C)C[C@H]2c2ccccc2)c(O)c1OC` [FISSISTIN] had an IC50 in the test with KB of 0.15 µg/mL (≈ 0.321 µM).

Take `COc1c(O)c(OC)c(C(=O)[C@@H]2CC(CCC=C(C)C)=CC[C@H]2c2ccccc2)c(O)c1OC` [ISOFISSISTIN]: the IC50 in the test with KB came out at 0.15 µg/mL (≈ 0.321 µM).

`COc1c(O)c(OC)c(C(=O)/C=C/c2ccccc2)c(O)c1OC` [PEDICIN]: inhibition in test [1] was half-maximal at 300 µM (IC50).

For `CC[C@]1(O)C[C@@H]2CN(CCc3c([nH]c4ccccc34)[C@@](C(=O)OC)(c3cc4c(cc3OC)N(C)[C@H]3[C@@](O)(C(=O)OC)[C@H](OC(C)=O)[C@]5(CC)C=CCN6CC[C@]43[C@@H]65)C2)C1` [VINBLASTINE], the IC50 in test [1] amounted to 4 µM.
